Experimental data: patent US10208033B2, “β-carboline, dihydro-β-carboline and tetrahydro-β-carboline alkaloid derivatives and preparation methods same and use in aspects of preventing and treating plant viruses, fungicides and insecticides” (NANKAI UNIVERSITY, priority 2013, dated 2019)

What was measured:
potato late blight = experiment: microbe, parasite or virus in culture; format: cell-based
Botrytis cinerea = experiment: Fungicidal (bactericidal) activity in vitro, PDA colony diameter; format: cell-based; details: 50 mg/kg
Macrophoma kawatsukai = experiment: as above; format: cell-based; details: 50 mg/kg
[1] = test system: tobacco mosaic virus (TMV); experiment: Anti-TMV in vitro effect (half-leaf soaking); format: cell-based, tobacco mosaic virus (host Nicotiana tabacum L.cv.Xanthi NN)
Sclerotinia scleotiorum = experiment: Fungicidal (bactericidal) activity in vitro, PDA colony diameter; format: cell-based; details: 50 mg/kg
[2] = test system: tobacco mosaic virus (TMV); experiment: Anti-TMV in vivo inactivation; design: species or system tobacco mosaic virus (host Nicotiana tabacum L.cv.Xanthi NN)
Rhizoctonia solani = experiment: Fungicidal (bactericidal) activity in vitro, PDA colony diameter; format: cell-based; details: 50 mg/kg
mosquito larvae = experiment: whole plant or invertebrate; details: 24 h
Procedure, shortened: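 Compound dissolved in acetone (or other solvent) to a 1000 ppm stock and diluted in water to 5 ppm. Ten Culex pipiens pallens larvae at the start of the fourth instar, laboratory-reared, added per beaker; solvent-only aqueous control.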

Fusarium graminearumt = experiment: microbe, parasite or virus in culture; format: cell-based; details: 50 mg/kg
corn borers [3] = details: concentration 600 mg/kg
Bipolaria maydis = experiment: organism not typed; format: cell-based; details: 50 mg/kg
cotton bollworms = experiment: whole plant or invertebrate; details: for Cotton bollworm Mortality (%): concentration 600 mg/kg
Protocol: Experimental method of cotton bollworms: feed and drug mixing method: measure 3 mL of prepared solution and add it to about 27 g of newly prepared feed, thereby obtaining needed concentration through dilution by 10 times.

[4] = test system: tobacco mosaic virus (TMV); experiment: Anti-TMV in vivo therapeutic effect; design: species or system tobacco mosaic virus (host Nicotiana tabacum L.cv.Xanthi NN)
armyworms = format: in vivo; details: concentration 600 mg/kg
Phytophthora capsici = experiment: Fungicidal (bactericidal) activity in vitro, PDA colony diameter; format: cell-based; details: 50 mg/kg
Rhizoctonia cereali = experiment: as above; format: cell-based; details: 50 mg/kg
Fusarium fujikuroi = experiment: as above; format: cell-based; details: 50 mg/kg
cucumber fusarium wilt = experiment: as above; format: cell-based; details: 50 mg/kg
Alternaria solani = experiment: as above; format: cell-based; details: 50 mg/kg
[5] = test system: tobacco mosaic virus (TMV); experiment: Anti-TMV in vivo protective effect; design: species or system tobacco mosaic virus (host Nicotiana tabacum L.cv.Xanthi NN)
[6] = test system: tobacco mosaic virus (TMV); experiment: Anti-TMV activity, overall statements on Table 1; format: in vivo, tobacco mosaic virus (host Nicotiana tabacum L.cv.Xanthi NN); details: 100 μg/mL versus ningnanmycin at 100 μg/mL
[7] = test system: Colletotrichum orbiculare; experiment: Fungicidal (bactericidal) activity in vitro, PDA colony diameter; format: cell-based; details: 50 mg/kg
Cercospora arachidicola = experiment: as above; format: cell-based; details: 50 mg/kg
corn borers [8] = experiment: whole plant or invertebrate; details: read-out: Corn borer Mortality (%)

Row | SMILES | Bactericidal activity (%) potato late blight (potato late blight) | Bactericidal activity (%) Botrytis cinerea (Botrytis cinerea) | Bactericidal activity (%) Macrophoma kawatsukai (Macrophoma kawatsukai) | Relative inhibition rate (%) In vitro activity ([1]; treatment dose 100 μg/mL) | Relative inhibition rate (%) In vitro activity ([1]; treatment dose 500 μg/mL) | Bactericidal activity (%) Sclerotinia scleotiorum (Sclerotinia scleotiorum) | Relative inhibition rate (%) In vivo inactivation ([2]; treatment dose 100 μg/mL) | Relative inhibition rate (%) In vivo inactivation ([2]; treatment dose 500 μg/mL) | Bactericidal activity (%) Rhizoctonia solani (Rhizoctonia solani) | Mosquito larvae Mortality (%) (mosquito larvae; concentration 10 mg/kg) | Bactericidal activity (%) Fusarium graminearumt (Fusarium graminearumt) | Corn borer Mortality (%) (corn borers [3]) | Bactericidal activity (%) Bipolaria maydis (Bipolaria maydis) | Cotton bollworm Mortality (%) (cotton bollworms) | Relative inhibition rate (%) In vivo therapy ([4]; treatment dose 100 μg/mL) | Relative inhibition rate (%) In vivo therapy ([4]; treatment dose 500 μg/mL) | Armyworm Mortality (%) (armyworms) | Bactericidal activity (%) Phytophthora capsici (Phytophthora capsici) | Bactericidal activity (%) Rhizoctonia cereali (Rhizoctonia cereali) | anti-TMV activity compared with ningnanmycin [6] | also measured
1 | C[C@@H]1N[C@H](C(=O)NN=Cc2cccs2)Cc2c1[nH]c1ccccc21 [Ic-20, (1S, 3S)—N′-(thiophene-2-methylene)-1-methyl-2,3,4,9-tetrahydropyridino [3,4-b] indol-3-formylhydrazine] | 36.0% | 72.7% | 55.6% | 23% | 58.5% | 88.2% | 29.6% | 59.1% | 46.1% | 75% | 62.1% | 30% | 44.0% | 20% | 25.1% | 52.3% | 35% | 68.4% | 72.5% | equivalent to the activity of commercial variety ningnanmycin | Bactericidal activity (%) Fusarium fujikuroi (Fusarium fujikuroi): 28.6%; Bactericidal activity (%) Cucumber fusarium wilt (cucumber fusarium wilt): 26.9%; Bactericidal activity (%) Alternaria solani (Alternaria solani): 45.0%; Relative inhibition rate (%) In vivo protection ([5]; treatment dose 100 μg/mL): 31.8%; Relative inhibition rate (%) In vivo protection ([5]; treatment dose 500 μg/mL): 61.3%; Bactericidal activity (%) Colletotrichum orbiculare [7]: 44.4%; Bactericidal activity (%) Cercospora arachidicola (Cercospora arachidicola): 47.1%
2 | CC(=NNC(=O)[C@@H]1Cc2c([nH]c3ccccc23)[C@H](C)N1)C(C)(C)C [Ic-28, (1S, 3S)—N′-(3,3-dimethyl-2-butylidene)-1-methyl-2,3,4,9-tetrahydropyridino [3,4-b] indol-3-formylhydrazine] | 30.4% | 41.7% | 36.4% | 25.6% | 58.1% | 3.8% | 21.3% | 59.7% | 8.3% | 100% | 53.8% | 40% | 28.0% | 45% | 16.7% | 55.4% | 45% | 18.2% | 48.6% | equivalent to the activity of commercial variety ningnanmycin | Mosquito larvae Mortality (%) (mosquito larvae; concentration 5 mg/kg): 20%; Bactericidal activity (%) Fusarium fujikuroi (Fusarium fujikuroi): 23.5%; Bactericidal activity (%) Cucumber fusarium wilt (cucumber fusarium wilt): 4.5%; Bactericidal activity (%) Alternaria solani (Alternaria solani): 14.3%; Relative inhibition rate (%) In vivo protection ([5]; treatment dose 100 μg/mL): 18.9%; Relative inhibition rate (%) In vivo protection ([5]; treatment dose 500 μg/mL): 56.8%; Bactericidal activity (%) Colletotrichum orbiculare [7]: 32.0%; Bactericidal activity (%) Cercospora arachidicola (Cercospora arachidicola): 36.4%
3 | C[C@@H]1N[C@H](C(=O)NNC(=O)C(C)(C)C)Cc2c1[nH]c1ccccc21 [Id-6, (1S, 3S)—N′-tert-valeryl-1-methyl-2,3,4,9-tetrahydropyridino [3,4-b] indol-3-formylhydrazine] | 26.1% | 50.0% | 42.4% | 8.9% | 45.7% | 17.3% | 12.8% | 44% | 5.6% | 65% | 30.8% | 50% | 20.0% | 25% | 14.2% | 42.1% | 35% | 12.1% | 10.8% | equivalent to the activity of commercial variety ningnanmycin | Bactericidal activity (%) Fusarium fujikuroi (Fusarium fujikuroi): 29.4%; Bactericidal activity (%) Cucumber fusarium wilt (cucumber fusarium wilt): 4.5%; Bactericidal activity (%) Alternaria solani (Alternaria solani): 14.3%; Relative inhibition rate (%) In vivo protection ([5]; treatment dose 100 μg/mL): 16.9%; Relative inhibition rate (%) In vivo protection ([5]; treatment dose 500 μg/mL): 47.5%; Bactericidal activity (%) Colletotrichum orbiculare [7]: 24.0%; Bactericidal activity (%) Cercospora arachidicola (Cercospora arachidicola): 9.1%
4 | C[C@@H]1N[C@H](C(=O)NNC(=O)C2CCCC2)Cc2c1[nH]c1ccccc21 [Id-7, (1S, 3S)—N′-(cyclopentyl formyl)-1-methyl-2,3,4,9-tetrahydropyridino [3,4-b] indol-3-formylhydrazine] | 21.7% | 50.0% | 33.3% | 22.2% | 47.2% | 7.7% | 20.3% | 42.4% | 1.4% | 80% | 15.4% | 40% | 28.0% | 30% | 18.6% | 51.4% | 40% | 15.2% | 29.7% | equivalent to the activity of commercial variety ningnanmycin | Bactericidal activity (%) Fusarium fujikuroi (Fusarium fujikuroi): 29.4%; Bactericidal activity (%) Cucumber fusarium wilt (cucumber fusarium wilt): 9.1%; Bactericidal activity (%) Alternaria solani (Alternaria solani): 9.5%; Relative inhibition rate (%) In vivo protection ([5]; treatment dose 100 μg/mL): 26.6%; Relative inhibition rate (%) In vivo protection ([5]; treatment dose 500 μg/mL): 53.9%; Bactericidal activity (%) Colletotrichum orbiculare [7]: 16.0%; Bactericidal activity (%) Cercospora arachidicola (Cercospora arachidicola): 9.1%
5 | CC1NCCc2c1[nH]c1ccccc21 (centres unmarked) [Tetrahydroharmane] | – | – | – | – | – | – | – | – | – | – | – | – | – | – | – | – | 15% | – | – | equivalent to the activity of commercial variety ningnanmycin | mortality at 600 mg/kg (corn borers [8]): 10%; inhibition at 100 µg/mL ([1]; Tobacco mosaic virus, treatment dose 100 μg/mL, read-out: Relative inhibition rate (%) In vitro activity): 28.4%; inhibition at 500 µg/mL ([1]; Tobacco mosaic virus, treatment dose 500 μg/mL, read-out: Relative inhibition rate (%) In vitro activity): 63.7%; inhibition at 100 µg/mL ([2]; Tobacco mosaic virus, treatment dose 100 μg/mL, read-out: Relative inhibition rate (%) In vivo inactivation): 23.5%; inhibition at 500 µg/mL ([2]; Tobacco mosaic virus, treatment dose 500 μg/mL, read-out: Relative inhibition rate (%) In vivo inactivation): 64.2%; mortality at 10 mg/kg (mosquito larvae; Culex pipiens, read-out: Mosquito larvae Mortality (%)): 30%; mortality at 600 mg/kg (cotton bollworms; Helicoverpa armigera, in Gossypium hirsutum, read-out: Cotton bollworm Mortality (%)): 15%; inhibition at 100 µg/mL ([4]; Tobacco mosaic virus, treatment dose 100 μg/mL, read-out: Relative inhibition rate (%) In vivo therapy): 20.4%; inhibition at 500 µg/mL ([4]; Tobacco mosaic virus, treatment dose 500 μg/mL, read-out: Relative inhibition rate (%) In vivo therapy): 57.2%; inhibition at 100 µg/mL ([5]; Tobacco mosaic virus, treatment dose 100 μg/mL, read-out: Relative inhibition rate (%) In vivo protection): 24.6%; inhibition at 500 µg/mL ([5]; Tobacco mosaic virus, treatment dose 500 μg/mL, read-out: Relative inhibition rate (%) In vivo protection): 59.5%
